{"source": "patent US10543185B2", "about": "“Method for treating idiopathic pulmonary fibrosis” (The University of Chicago, priority 2015, dated 2020)", "key": {"[1]": {"tested_on": "patients with idiopathic pulmonary fibrosis (IPF)", "conditions": "previous reports (Martinez et al., N Engl J Med. 2014); cited from earlier work"}, "[2]": {"tested_on": "patients with idiopathic pulmonary fibrosis (IPF)", "assay": "PANTHER-IPF clinical trial cohort: secondary genotype-stratified survival analysis, NAC or PAN versus placebo", "format": "in vivo, human", "conditions": "for Composite Endpoint, %: 10% FVC decline, hospitalization or transplantation; for Treatment-Specific Composite Endpoint Risk, HR / Multivariable Cox interaction model coefficient, therapy term / Multivariable Cox interaction model coefficient, SNP*therapy interaction term: adjusted for age, gender; for Treatment-Specific Composite Endpoint Risk, HR: FVC (% predicted) and DLCO (% predicted); for Multivariable Cox interaction model coefficient, therapy term / Multivariable Cox interaction model coefficient, SNP*therapy interaction term: composite endpoint-free survival, FVC and DLCO; for Progression-Free Survival HR (95% CI) / Hospitalization-Free Survival HR (95% CI): NAC vs placebo", "excerpt": "Single nucleotide polymorphisms (SNPs) within TOLLIP and MUC5B are associated with idiopathic pulmonary fibrosis (IPF) susceptibility and survival. Both genes play critical roles in lung host defense, a process that can be influenced by oxidative stress and modulated by N-acetylcysteine (NAC). Applicants set out to determine whether SNPs within TOLLIP and MUC5B modify the efficacy of NAC therapy in patients with IPF. To achieve this, secondary analysis was completed of the PANTHER-IPF clinical trial (n=154) and an independent replication cohort (n=405) composed of patients from the INSPIRE clinical trial and University of Chicago. SNPs within TOLLIP (rs5743890/rs5743894/rs5743854/rs3750920) and MUC5B ([…]) were genotyped. Multivariable Cox regression with interaction analysis was performed followed by genotype-stratified models for significant interaction SNPs to determine genotype-specific survival associated with NAC therapy. A composite endpoint of death, FVC decline, hospitalization or transplantation was used.\nThe PANTHER cohort consists of individuals enrolled in the IPFnet randomized clinical trial comparing three treatments: prednisone/azathioprine/N-acetylcysteine (PAN) combination therapy, N-acetylcysteine (NAC) monotherapy and placebo. […] Enrollment resumed for the NAC and placebo arms from January to July 2012, with study completion in 2013. Clinical and genetic data for patients providing informed consent to genetic testing were used to conduct the analysis. Patients were followed for up to 72 weeks after randomization.\nTo minimize the effects of population stratification, only participants that self-declared a non-Hispanic white ethnicity were included in the analysis. Demographic and clinical information extracted from the datasets included age, gender, race/ethnicity, treatment arm, pulmonary function testing (PFT) including forced vital capacity (FVC) and diffusion capacity for carbon monoxide (DLCO) and outcomes, including death, >10% decline in FVC, hospitalization and lung transplantation.\nThe primary analysis tested whether statistical interaction was present between SNPs of interest and NAC therapy with regard to composite endpoint-free survival, defined as time from trial enrollment to death, ≥10% FVC decline, hospitalization or transplantation. Interaction was formally tested with a multivariable Cox regression model that included the following variables: SNP genotype, NAC therapy, and a SNP*NAC interaction term, age, gender, FVC (% predicted) and DLCO (% predicted). Statistical interaction was considered present when the Wald z-statistic for SNP*NAC interaction term corresponded to a p-value <0.01, which adjusts for multiple testing by Bonferroni correction. Interaction detected by this method was then further explored by constructing genotype-stratified multivariable Cox models to determine genotype-specific endpoint risk associated with NAC therapy. Based on SNP distributions, an additive allelic model was assumed for rs3750920 (TOLLIP) and a dominant model for rs5743890 (TOLLIP), rs5743894 (TOLLIP), rs5743854 (TOLLIP) and rs35705950 (MUC5B). Each model was checked to ensure that the proportional hazards assumption was met.\nOf the 341 patients enrolled in the PANTHER trial, 315 self-reported a non-Hispanic white ethnicity (FIG. 2). Of those 315 individuals, 154 consented to genetic testing and were included in the primary analysis. Among genotyped patients, fifty-four patients received placebo therapy and […] patients received NAC therapy. Baseline demographic and clinical characteristics between non-Hispanic white genotyped (n=154) and non-genotyped (n=161) patients stratified by treatment group are shown in Table 1. […]"}, "[3]": {"conditions": "PANTHER genotyped patients, NAC arm (n = 60)"}, "[4]": {"conditions": "PANTHER non-genotyped patients, NAC arm (n = 61)"}}, "note": "Entries after “also recorded” stand apart in the source; their conditions may differ.", "data": [{"smiles": "CC(=O)N[C@@H](CS)C(=O)O", "note": "[NAC, (2R)-2-acetamido-3-sulfanylpropanoic acid]", "values": [{"measurement": "Benefit of therapy in patients with IPF, unselected by genotype", "setting": "[1]", "value": "no benefit; also recorded: did not provide benefit; also recorded: ineffective"}, {"measurement": "Death, %", "setting": "[2]; [3]", "value": "(1.7) %"}, {"measurement": "FVC Decline ≥10%, %", "setting": "[2]; [3]", "value": "(18.3) %"}, {"measurement": "Hospitalization, %", "setting": "[2]; [3]", "value": "(13.3) %"}, {"measurement": "Transplant, %", "setting": "[2]; [3]", "value": "(5) %"}, {"measurement": "Composite Endpoint, %", "setting": "[2]; PANTHER genotyped patients, NAC arm (n = 60), death", "value": "(31.7) %"}, {"measurement": "Death, %", "setting": "[2]; [4]", "value": "(4.9) %"}, {"measurement": "FVC Decline ≥10%, %", "setting": "[2]; [4]", "value": "(27.9) %"}, {"measurement": "Hospitalization, %", "setting": "[2]; [4]", "value": "(14.8) %"}, {"measurement": "Transplant, %", "setting": "[2]; [4]", "value": "(1.6) %"}, {"measurement": "Composite Endpoint, %", "setting": "[2]; PANTHER non-genotyped patients, NAC arm (n = 61), death", "value": "(42.6) %"}, {"measurement": "Treatment-Specific Composite Endpoint Risk, HR", "setting": "[2]; genotyped PANTHER patients", "value": 0.92}, {"measurement": "Multivariable Cox interaction model coefficient, therapy term", "setting": "[2]; model with rs3750920 (TOLLIP)", "value": 1.34}, {"measurement": "Multivariable Cox interaction model coefficient, therapy term", "setting": "[2]; model with rs5743890 (TOLLIP)", "value": 0.17}, {"measurement": "Multivariable Cox interaction model coefficient, therapy term", "setting": "[2]; model with rs5743894 (TOLLIP)", "value": 0.45}, {"measurement": "Multivariable Cox interaction model coefficient, therapy term", "setting": "[2]; model with rs35705950 (MUC5B)", "value": 0.91}, {"measurement": "Treatment-Specific Composite Endpoint Risk, HR", "setting": "[2]; non-genotyped PANTHER patients", "value": 1.31}, {"measurement": "Progression-Free Survival HR (95% CI)", "setting": "[2]; rs3750920 (TOLLIP) CC genotype, death, 10% FVC decline or transplant", "value": "1.27 (0.21-7.55)"}, {"measurement": "Hospitalization-Free Survival HR (95% CI)", "setting": "[2]; rs3750920 (TOLLIP) CC genotype, death, hospitalization or transplant", "value": "3.74 (0.35-39.80)"}, {"measurement": "Hospitalization-Free Survival HR (95% CI)", "setting": "[2]; rs3750920 (TOLLIP) CT genotype", "value": "0.45 (0.10-2.15)"}, {"measurement": "Progression-Free Survival HR (95% CI)", "setting": "[2]; rs3750920 (TOLLIP) CT genotype", "value": "0.63 (0.17-2.30)"}, {"measurement": "Progression-Free Survival HR (95% CI)", "setting": "[2]; rs3750920 (TOLLIP) TT genotype", "value": "0.09 (0.01-0.76)"}, {"measurement": "Multivariable Cox interaction model coefficient, SNP*therapy interaction term", "setting": "[2]; rs3750920 (TOLLIP) interaction", "value": "−1.47"}, {"measurement": "Multivariable Cox interaction model coefficient, SNP*therapy interaction term", "setting": "[2]; rs5743890 (TOLLIP) interaction", "value": "−1.17"}, {"measurement": "Hospitalization-Free Survival HR (95% CI)", "setting": "[2]; rs5743894 (TOLLIP) AA genotype", "value": "1.43 (0.44-4.70)"}, {"measurement": "Progression-Free Survival HR (95% CI)", "setting": "[2]; rs5743894 (TOLLIP) AA genotype", "value": "1.68 (0.58-4.90)"}, {"measurement": "Hospitalization-Free Survival HR (95% CI)", "setting": "[2]; rs5743894 (TOLLIP) AG/GG genotype", "value": "0.21 (0.02-1.99)"}, {"measurement": "Multivariable Cox interaction model coefficient, SNP*therapy interaction term", "setting": "[2]; rs5743894 (TOLLIP) interaction", "value": "−1.42"}, {"measurement": "Hospitalization-Free Survival HR (95% CI)", "setting": "[2]; rs35705950 (MUC5B) GG genotype", "value": "1.25 (0.15-10.30)"}, {"measurement": "Progression-Free Survival HR (95% CI)", "setting": "[2]; rs35705950 (MUC5B) GG genotype", "value": "3.72 (0.69-20.16)"}, {"measurement": "Hospitalization-Free Survival HR (95% CI)", "setting": "[2]; rs35705950 (MUC5B) GG/TT genotype as printed in Table 7 (text: GT or TT)", "value": "0.49 (0.15-1.58)"}, {"measurement": "Multivariable Cox interaction model coefficient, SNP*therapy interaction term", "setting": "[2]; rs35705950 (MUC5B) interaction", "value": "−1.40"}]}]}
